For 4 molecules, EC50 results are on record in patent publication US7868008B2, “Substituted isoindolones and their use as metabotropic glutamate receptor potentiators” (AstraZeneca AB, priority 2005, dated 2011).

The term EC50 denotes the concentration giving half of the maximal effect.

T1 sequence (Q14416 19-819 limits assumed): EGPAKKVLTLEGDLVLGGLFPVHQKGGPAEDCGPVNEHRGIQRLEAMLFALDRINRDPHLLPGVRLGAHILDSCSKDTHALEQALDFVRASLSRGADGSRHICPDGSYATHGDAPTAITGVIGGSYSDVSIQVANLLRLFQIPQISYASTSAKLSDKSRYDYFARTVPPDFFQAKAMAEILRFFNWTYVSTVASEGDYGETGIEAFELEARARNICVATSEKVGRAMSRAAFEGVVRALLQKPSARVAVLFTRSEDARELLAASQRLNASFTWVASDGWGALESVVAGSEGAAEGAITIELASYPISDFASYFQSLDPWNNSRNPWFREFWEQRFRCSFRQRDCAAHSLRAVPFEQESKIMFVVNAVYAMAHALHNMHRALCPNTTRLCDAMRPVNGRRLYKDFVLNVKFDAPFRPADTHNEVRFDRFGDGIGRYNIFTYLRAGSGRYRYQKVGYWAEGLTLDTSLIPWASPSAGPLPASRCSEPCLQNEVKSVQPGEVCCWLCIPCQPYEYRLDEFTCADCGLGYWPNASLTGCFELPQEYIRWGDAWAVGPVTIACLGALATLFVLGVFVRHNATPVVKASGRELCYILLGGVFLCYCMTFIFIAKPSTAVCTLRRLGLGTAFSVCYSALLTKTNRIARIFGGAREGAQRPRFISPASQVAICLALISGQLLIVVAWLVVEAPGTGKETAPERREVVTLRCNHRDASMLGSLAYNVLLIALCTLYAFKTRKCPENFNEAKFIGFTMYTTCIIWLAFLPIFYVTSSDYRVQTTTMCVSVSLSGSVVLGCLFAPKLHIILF

This assay concerns the target T1, human mGluR2 (Homo sapiens, UniProt Q14416).
T1 construct: chimeric mGluR2/CaR construct comprising the extracellular and transmembrane domains of human mGluR2 and the intracellular domain of the human calcium receptor, fused
The assay can be described thus: mGluR2 potentiator assays described herein (FLIPR calcium mobilization in HEK 293 cells expressing chimeric mGluR2/CaR, or [35S]-GTPγS binding with CHO cell membranes). The assay is classed as cell-based. The conditions noted are these: assay not specified (FLIPR or [35S]-GTPγS); allosteric activator/potentiator activity at mGluR2. From the text:
The pharmacological properties of the compounds of the invention can be analyzed using standard assays for functional activity. Examples of glutamate receptor assays are well known in the art as described in, for example, Aramori et al., 1992, Neuron, 8:757; Tanabe et al., 1992, Neuron, 8:169; Miller et al., 1995, J. Neuroscience, 15:6103; Balazs, et al., 1997, J. Neurochemistry, 1997, 69:151. The methodology described in these publications is incorporated herein by reference. Conveniently, the compounds of the invention can be studied by means of an assay that measures the mobilization of intracellular calcium, [Ca^2+]i in cells expressing mGluR2.
Fluorometric Imaging Plate Reader (FLIPR) analysis was used to detect allosteric activators of mGluR2 via calcium mobilization. A clonal HEK 293 cell line expressing a chimeric mGluR2/CaR construct comprising the extracellular and transmembrane domains of human mGluR2 and the intracellular domain of the human calcium receptor, fused to the promiscuous chimeric protein Gαqi5 was used. […] At 24-hours prior to analysis, the cells were trypsinized and plated in DMEM at 100,000 cells/well in black sided, clear-bottom, collagen I coated, 96-well plates. The plates were incubated under 5% CO2 at 37° C. overnight. Cells were loaded with 6 μM fluo-3 acetoxymethylester (Molecular Probes, Eugene Oreg.) for 60 minutes at room temperature. […]
FLIPR experiments were done using a laser setting of 0.8 W and a 0.4 second CCD camera shutter speed. […] An addition of test compound (0.01 μM to 30 μM in duplicate) was made after 10 seconds of baseline fluorescent readings were recorded on FLIPR. Fluorescent signals were then recorded for an additional 75 seconds at which point a second addition of DCG-IV (0.2 μM) was made and fluorescent signals were recorded for an additional 65 seconds. Fluorescent signals were measured as the peak height of the response within the sample period. Data was analyzed using Assay Explorer, and EC50 and Emax values (relative to maximum DCG-IV effect) were calculated using a four parameter logistic equation.
A [^35S]-GTPγS binding assay was used to functionally assay mGluR2 receptor activation. The allosteric activator activity of compounds at the human mGluR2 receptor were measured using a [^35S]-GTPγS binding assay with membranes prepared from CHO cells which stably express the human mGluR2. […] The GTPγS binding assay therefore provides a quantitative measure of receptor activation.
Membranes were prepared from CHO cells stably transfected with human mGluR2. […] The amount of radioactivity bound was determined by counting plates on the Packard TopCount. […]
In the case of `O=C1c2c(Cl)cc(-c3noc(CN4CCC(F)CC4)n3)cc2CN1Cc1ccc(OC(F)(F)F)cc1` [Example 8.3, 7-Chloro-5-[5-(4-fluoro-piperidin-1-ylmethyl)-[1,2,4]oxadiazol-3-yl]-2-(4-trifluoromethoxy-benzyl)-2,3-dihydro-isoindol-1-one], the EC50 stood at 75 nM.
Take `Cc1cc(-c2nc(CN3CCN(C=O)CC3)no2)cc2c1C(=O)N(Cc1ccc(OC(F)(F)F)cc1)C2` [Example 10.4, 4-{5-[7-Methyl-1-oxo-2-(4-trifluoromethoxy-benzyl)-2,3-dihydro-1H-isoindol-5-yl]-[1,2,4]oxadiazol-3-ylmethyl}-piperazine-1-carbaldehyde]: the EC50 turned out to be 230 nM.
The figure for `Cc1cc(CC2CCN(Cc3ccccc3F)CC2)cc2c1C(=O)N(CC1CC1)C2` [Example 11, 2-Cyclopropylmethyl-5-[1-(2-fluorobenzyl)-piperidin-4-ylmethyl]-7-methyl-2,3-dihydro-isoindol-1-one] is 84 nM; for `Cc1cc(CC2CCN(Cc3ccc(F)cc3)CC2)cc2c1C(=O)N(CC1CCCCC1)C2` [Example 13.7, 2-Cyclohexylmethyl-5-[1-(4-fluoro-benzyl)-piperidin-4-ylmethyl]-7-methyl-2,3-dihydro-isoindol-1-one] it is 28 nM.
